We go through twelve compounds from ChEMBL document CHEMBL1201862, “PubChem BioAssay data set” (2004).

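How tested: cells in 96-well plates exposed to compound for 48 hours at five concentrations. The concentration for 50% growth inhibition is given as GI50.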 Activity calls are given as the source filed them. Rule as the data show it: active = GI50 up to about 1.1 µM and inactive = higher.

Test systems include MDA-MB-231; PC-3; Malme-3M; LOX IMVI; ACHN; SNB-19; SK-MEL-5; BT-549; RXF 393; HOP-62; CAKI-1; KM12; UACC-62; HCT-15; COLO 205; HCT-116; MOLT-4; SK-MEL-2; OVCAR-3.
Common to all, as to assay: NCI anticancer screen, dose series, 48 h

For `O=C1NC(S(=O)(=O)O)=NNC12c1ccccc1-c1ccccc12`, the GI50 in the experiment with MDA-MB-231, with PC-3, with Malme-3M, in the experiment with LOX IMVI, in the experiment with ACHN and in the experiment with SNB-19 was > 10 µM (inactive) in each case. For the same compound, the GI50 with SK-MEL-5, with BT-549, in the experiment on RXF 393, with HOP-62, in the experiment with CAKI-1 and with KM12 was > 10 µM (inactive) throughout. Besides, the GI50 in the experiment on UACC-62 was > 10 µM (inactive); in the experiment on HCT-15, more than 10 µM; in the experiment with COLO 205, > 10 µM (inactive); in the experiment on HCT-116 it was > 10 µM (inactive); with MOLT-4, > 10 µM (inactive).
On to `N#CC(C#N)/N=N/c1ccc(-c2nc3ccccc3o2)cc1`, for which the GI50 in the experiment with MDA-MB-231 is 17.8 µM (inactive); with PC-3, 8 µM (inactive); in the experiment on Malme-3M it was 13.3 µM (inactive); with LOX IMVI, 13.1 µM (inactive); with ACHN, 12.9 µM (inactive); in the experiment with SNB-19, 24.7 µM (inactive). The GI50 in the experiment with SK-MEL-5 is 2.05 µM (inactive); in the experiment with BT-549, 12.1 µM (inactive); in the experiment on SK-MEL-2, 12.4 µM (inactive); in the experiment with HOP-62 it was 16.6 µM (inactive); in the experiment with KM12, 20.9 µM (inactive); with UACC-62 it was 6.05 µM (inactive). Further, the GI50 with HCT-15 was 14.8 µM; in the experiment on OVCAR-3, 4.19 µM (inactive); in the experiment on COLO 205, 11.7 µM (inactive); in the experiment with HCT-116, 5.55 µM (inactive); in the experiment with MOLT-4, 7.82 µM (inactive).
With `CC1(CC2=C(C(=O)NCCO[Si](C)(C)C(C)(C)C)C3(OCCO3)C2=O)OCCO1`, the GI50 in the experiment on MDA-MB-231 is > 100 µM (inactive); in the experiment with PC-3, > 100 µM (inactive); in the experiment with Malme-3M, 20.4 µM (inactive); in the experiment with LOX IMVI it was 57.5 µM (inactive); in the experiment with ACHN, > 100 µM (inactive); with SNB-19, > 100 µM (inactive). The GI50 in the experiment on SK-MEL-5 was > 100 µM (inactive); in the experiment with BT-549, 53.2 µM (inactive); with SK-MEL-2, > 100 µM (inactive); with HOP-62, > 100 µM (inactive); with CAKI-1, > 100 µM (inactive); with KM12, > 100 µM (inactive). The GI50 in the experiment with UACC-62 is > 100 µM (inactive); in the experiment with HCT-15 it was more than 100 µM; in the experiment with OVCAR-3, > 100 µM (inactive); in the experiment on COLO 205, > 100 µM (inactive); in the experiment on HCT-116, 68.5 µM (inactive); in the experiment on MOLT-4, 61.1 µM (inactive).
Turning to `CC[C@H](NC1=C(Cl)C(=O)c2c(O)ccc(O)c2C1=O)C(=O)OC`, the GI50 in the experiment on MDA-MB-231 was 3.33 µM (inactive); in the experiment on PC-3 it was 6.9 µM (inactive); in the experiment on Malme-3M, 4.28 µM (inactive); in the experiment on LOX IMVI it was 3.64 µM (inactive); in the experiment on ACHN, > 10 µM (inactive); with SNB-19, > 10 µM (inactive). In addition, the GI50 with SK-MEL-5 was 6.53 µM (inactive); in the experiment with BT-549 it was > 10 µM (inactive); in the experiment with SK-MEL-2 it was > 10 µM (inactive); in the experiment with HOP-62, > 10 µM (inactive); in the experiment on CAKI-1, > 10 µM (inactive); with KM12 it was > 10 µM (inactive). For the same compound, the GI50 with UACC-62 is > 10 µM (inactive); in the experiment with HCT-15, 5.33 µM; with OVCAR-3, 4.19 µM (inactive); in the experiment on COLO 205, 3.58 µM (inactive); with HCT-116 it was 2.34 µM (inactive); in the experiment with MOLT-4 it was 2.6 µM (inactive).
For `O=C1CSC(c2ccc([N+](=O)[O-])cc2)N1c1ccc(-c2ccc(-n3c(-c4ccccc4)nc4ccccc4c3=O)cc2)cc1` (stereo not given), the GI50 is 49.8 µM (inactive) in the experiment with MDA-MB-231; 36.4 µM (inactive) in the experiment on PC-3; 58.1 µM (inactive) in the experiment with Malme-3M; 52.5 µM (inactive) in the experiment with LOX IMVI; 56.5 µM (inactive) with ACHN; > 100 µM (inactive) in the experiment on SNB-19. In addition, the GI50 with SK-MEL-5 was 17.3 µM (inactive); in the experiment on BT-549, 53.3 µM (inactive); with SK-MEL-2, 44.2 µM (inactive); in the experiment on HOP-62 it was > 100 µM (inactive); with CAKI-1, > 100 µM (inactive); in the experiment on KM12 it was 21.4 µM (inactive). For the same compound, the GI50 in the experiment with UACC-62 is 35.1 µM (inactive); in the experiment on HCT-15, 33.7 µM; with OVCAR-3, 53.1 µM (inactive); in the experiment on COLO 205 it was 43.5 µM (inactive); with HCT-116, 60.5 µM (inactive); with MOLT-4 it was 20.4 µM (inactive).
As for `Nc1c(C(=O)c2ccc(Cl)cc2)[nH]c(NCc2ccccc2)c1C(=S)Nc1ccccc1`, the GI50 is 1.9 µM (inactive) with MDA-MB-231; 5.31 µM (inactive) in the experiment on PC-3; 1.8 µM (inactive) with LOX IMVI; 2.28 µM (inactive) in the experiment on ACHN; 4.07 µM (inactive) in the experiment on SNB-19; 2.49 µM (inactive) in the experiment with BT-549. Further, the GI50 is 1.79 µM (inactive) in the experiment with RXF 393; 1.91 µM (inactive) in the experiment with SK-MEL-2; 3.67 µM (inactive) in the experiment on HOP-62; 5.2 µM (inactive) in the experiment with CAKI-1; 1.67 µM (inactive) in the experiment on KM12; 8.15 µM (inactive) with UACC-62. Also, the GI50 was 1.79 µM in the experiment with HCT-15; 6.65 µM (inactive) with OVCAR-3; 11.5 µM (inactive) in the experiment with COLO 205; 1.83 µM (inactive) in the experiment with HCT-116; 2.58 µM (inactive) with MOLT-4.
For the compound `NC(=O)NCCCC(NC(=O)OCCCCn1ccc(=O)[nH]c1=O)C(=O)O` (stereo not given), the GI50 in the experiment with MDA-MB-231, in the experiment on PC-3, in the experiment with LOX IMVI, in the experiment on ACHN, in the experiment on SNB-19 and in the experiment on BT-549 was > 100 µM (inactive) in each case. Moreover, the GI50 with RXF 393, in the experiment with SK-MEL-2, in the experiment with HOP-62, in the experiment on CAKI-1, in the experiment on KM12 and in the experiment with UACC-62 was > 100 µM (inactive) throughout. In addition, the GI50 with HCT-15 was more than 100 µM; with OVCAR-3 it was > 100 µM (inactive); in the experiment with COLO 205, > 100 µM (inactive); in the experiment on HCT-116, > 100 µM (inactive); in the experiment on MOLT-4, > 100 µM (inactive).
With `OC(/C(=N/c1ccccc1)c1ccccc1)c1ccccc1` (stereo not given), the GI50 with MDA-MB-231 was 13.8 µM (inactive); in the experiment on Malme-3M, 2.22 µM (inactive); with LOX IMVI, 12.4 µM (inactive); with ACHN it was 14.4 µM (inactive); with SNB-19, 6.52 µM (inactive); in the experiment on SK-MEL-5, 2.07 µM (inactive). The GI50 in the experiment on BT-549 is 2.68 µM (inactive); with RXF 393, 12.3 µM (inactive); with SK-MEL-2, 2.26 µM (inactive); in the experiment on HOP-62 it was 17.1 µM (inactive); in the experiment with CAKI-1 it was 11.9 µM (inactive); in the experiment on KM12, 2.72 µM (inactive). Also, the GI50 in the experiment on UACC-62 is 3.57 µM (inactive); in the experiment on HCT-15, 29 µM; with OVCAR-3, 2.66 µM (inactive); in the experiment on COLO 205 it was 4.05 µM (inactive); with HCT-116, 5.37 µM (inactive); with MOLT-4 it was 6.62 µM (inactive).
As for `CCOC(=O)C(C(=O)COC(C)(C)C)[C@@H]1C=C[C@H](OC(C)=O)C1` (stereo not given in full), the GI50 in the experiment with MDA-MB-231, in the experiment with PC-3, with Malme-3M, in the experiment on ACHN, in the experiment on SNB-19 and with BT-549 was > 100 µM (inactive) in each case. Also, the GI50 in the experiment on SK-MEL-2 was > 100 µM (inactive); in the experiment on HOP-62 it was > 100 µM (inactive); with CAKI-1, > 100 µM (inactive); in the experiment with KM12, > 100 µM (inactive); with UACC-62 it was > 100 µM (inactive); in the experiment with HCT-15 it was more than 100 µM. Besides, the GI50 was > 100 µM (inactive) in the experiment on OVCAR-3, > 100 µM (inactive) with COLO 205, > 100 µM (inactive) with HCT-116 and 65.2 µM (inactive) with MOLT-4.
Regarding `Cc1sc2nc3n(c(=O)c2c1C)N=C(c1ccc(Cl)cc1)CS3`, the GI50 with MDA-MB-231, in the experiment on PC-3, with Malme-3M, with LOX IMVI, in the experiment on ACHN and with SK-MEL-5 was > 100 µM (inactive) throughout. For the same compound, the GI50 is 31.6 µM (inactive) in the experiment on BT-549; > 100 µM (inactive) with RXF 393; 66.1 µM (inactive) in the experiment on HOP-62; > 100 µM (inactive) in the experiment with CAKI-1; > 100 µM (inactive) in the experiment on KM12; > 100 µM (inactive) with UACC-62. Further, the GI50 with HCT-15 was more than 100 µM; in the experiment on OVCAR-3, > 100 µM (inactive); in the experiment on COLO 205, > 100 µM (inactive); in the experiment with HCT-116, > 100 µM (inactive); in the experiment with MOLT-4, > 100 µM (inactive).
As for `CSCCCN(CCCSC)CCCSC`, the GI50 with MDA-MB-231, in the experiment on PC-3, with LOX IMVI, in the experiment on SNB-19, in the experiment with SK-MEL-5 and in the experiment on BT-549 was > 100 µM (inactive) each time. In addition, the GI50 with HOP-62 is > 100 µM (inactive); in the experiment on KM12, > 100 µM (inactive); in the experiment on UACC-62, 97.5 µM (inactive); in the experiment on HCT-15, more than 100 µM; in the experiment on OVCAR-3, > 100 µM (inactive); in the experiment with COLO 205, > 100 µM (inactive). Moreover, the values for the GI50 with HCT-116 and with MOLT-4 were > 100 µM (inactive) and 24.2 µM (inactive), respectively.
As for `O=C1NN=C(c2ccc(Cl)cc2)CC1C1C(=O)N(c2ccccc2)N=C1c1ccccc1` (stereo not given), the GI50 in the experiment with MDA-MB-231 is 35.9 µM (inactive); in the experiment on PC-3, 22.2 µM (inactive); in the experiment with Malme-3M it was 30.7 µM (inactive); in the experiment with LOX IMVI it was 18.2 µM (inactive); with ACHN it was 29.2 µM (inactive); in the experiment with SNB-19, 33.8 µM (inactive). The GI50 in the experiment on SK-MEL-5 was > 10 µM (inactive); with BT-549, 20 µM (inactive); with RXF 393, 22.5 µM (inactive); in the experiment with SK-MEL-2, 25.1 µM (inactive); in the experiment on HOP-62, 32 µM (inactive); in the experiment with KM12, 29 µM (inactive). The GI50 in the experiment with UACC-62 is 26.8 µM (inactive); in the experiment on HCT-15, 31.3 µM; with OVCAR-3, 27.5 µM (inactive); in the experiment on COLO 205, 41.8 µM (inactive); in the experiment on HCT-116, 19.6 µM (inactive); with MOLT-4 it was 28.1 µM (inactive).
